Measured values as given in patent US10662195B2, “Protein kinase conjugates and inhibitors” (Celgene Avilomics Research, Inc., priority 2009, dated 2020).
Like-named read-outs stand apart in the source and are kept apart here.

Columns and labels:
FLT3 = molecular target: T1, FLT3 (Homo sapiens, UniProt P36888); assay: FLT-3 Omnia continuous-read kinase assay; assay type: biochemical
T1 construct: purchased PV3182
T1 sequence (P36888 27-993): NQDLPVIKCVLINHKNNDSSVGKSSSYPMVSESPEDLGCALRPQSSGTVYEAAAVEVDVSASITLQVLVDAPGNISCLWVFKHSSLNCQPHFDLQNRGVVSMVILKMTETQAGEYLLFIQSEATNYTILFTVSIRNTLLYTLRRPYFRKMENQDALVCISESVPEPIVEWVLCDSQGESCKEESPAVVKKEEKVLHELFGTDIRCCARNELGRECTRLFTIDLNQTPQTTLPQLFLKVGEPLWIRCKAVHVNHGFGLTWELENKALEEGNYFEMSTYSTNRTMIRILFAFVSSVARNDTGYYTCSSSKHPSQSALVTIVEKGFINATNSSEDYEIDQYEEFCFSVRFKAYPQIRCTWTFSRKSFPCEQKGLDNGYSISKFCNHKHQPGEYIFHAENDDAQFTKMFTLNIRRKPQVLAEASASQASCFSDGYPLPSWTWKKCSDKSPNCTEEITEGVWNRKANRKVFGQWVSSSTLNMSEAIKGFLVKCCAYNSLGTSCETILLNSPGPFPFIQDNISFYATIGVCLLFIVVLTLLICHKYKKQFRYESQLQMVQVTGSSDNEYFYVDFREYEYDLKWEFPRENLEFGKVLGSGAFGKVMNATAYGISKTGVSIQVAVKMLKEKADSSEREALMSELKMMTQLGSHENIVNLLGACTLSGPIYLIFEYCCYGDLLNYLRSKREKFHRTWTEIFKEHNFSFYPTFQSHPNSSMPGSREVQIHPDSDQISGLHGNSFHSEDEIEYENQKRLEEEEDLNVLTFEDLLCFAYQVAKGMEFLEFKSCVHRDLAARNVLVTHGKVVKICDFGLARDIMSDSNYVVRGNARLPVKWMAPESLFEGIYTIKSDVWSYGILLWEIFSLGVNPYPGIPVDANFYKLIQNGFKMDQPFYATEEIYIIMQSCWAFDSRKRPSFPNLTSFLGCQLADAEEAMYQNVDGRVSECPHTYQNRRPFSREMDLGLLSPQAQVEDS
Description: (§1) A. KDR and FLT-3 Omnia Assay for Potency Assessment:
(§2) The protocol below describes a continuous-read kinase assay to measure inherent potency of Avila Therapeutics' compounds against active KDR and FLT-3 enzymes. The assay was performed substantially as described by the vendor (Invitrogen, Carlsbad, Calif.; http://www.invitrogen.com/content.cfm?pageid=11338.)
(§3) Briefly, 10× stocks of KDR from Invitrogen or BPS Bioscience (PV3660 or 40301) and FLT-3 (PV3182) enzymes, 1.13×ATP (AS001A) and Y9-Sox or Y12-Sox peptide substrates (KCZ1001) were prepared in 1× kinase reaction buffer consisting of 20 mM Tris, pH 7.5, 5 mM MgCl2, 1 mM EGTA, 5 mM β-glycerophosphate, 5% glycerol (10× stock, KB002A) and 0.2 mM DTT (DS001A). 5 μL of enzyme were pre-incubated in a Corning (#3574) 384-well, white, non-binding surface microtiter plate (Corning, N.Y.) for 30 min at 27° C. with a 0.5 μL volume of 50% DMSO and serially diluted compounds prepared in 50% DMSO. Kinase reactions were started with the addition of 45 μL of the ATP/Y9 or Y5-Sox peptide substrate mix and monitored every 30-90 seconds for 60 minutes at λex360/λem485 in a Synergy^4 plate reader from BioTek (Winooski, Vt.). At the conclusion of each assay, progress curves from each well were examined for linear reaction kinetics and fit statistics (R^2, 95% confidence interval, absolute sum of squares). Initial velocity (0 minutes to 20+ minutes) from each reaction was determined from the slope of a plot of relative fluorescence units vs time (minutes) and then plotted against inhibitor concentration to estimate IC50 from Log [Inhibitor] vs Response, Variable Slope model in GraphPad Prism from GraphPad Software (San Diego, Calif.).
[FLT-3]=15 nM, [ATP]=500 μM and [Y5-Sox peptide]=10 μM (ATP KMapp=470 μM)
(§4) The reported IC50_APP and IC50 values are in units of nM.

CKIT [1] = molecular target: CKIT (Homo sapiens, UniProt P10721); assay: c-Kit Omnia kinase assay; assay type: biochemical; details: reversible reference compounds; read-out: IC50 CKIT
PDGFRA = molecular target: T2, PDGFRA (Homo sapiens, UniProt P16234); assay: Assay for PDGFRa (Omnia); assay type: biochemical
T2 construct: purchased PV3811
Description: Briefly, 10× stock of PDGFRα (PV3811) enzyme, 1.13×ATP (AS001A) and Y12-Sox peptide substrates (KCZ1001) was prepared in 1× kinase reaction buffer consisting of 20 mM Tris, pH 7.5, 5 mM MgCl2, 1 mM EGTA, 5 mM β-glycerophosphate, 5% glycerol (10× stock, KB002A) and 0.2 mM DTT (DS001A). 5 μL of enzyme were pre-incubated in a Corning (#3574) 384-well, white, non-binding surface microtiter plate (Corning, N.Y.) for 30 min at 27° C. with a 0.5 μL volume of 50% DMSO and serially diluted compounds prepared in 50% DMSO. Kinase reactions were started with the addition of 45 μL of the ATP/Y9 or Y12-Sox peptide substrate mix and monitored every […] for 60 minutes at λex360/λem485 in a Synergy^4 plate reader from BioTek (Winooski, Vt.). At the conclusion of each assay, progress curves from each well were examined for linear reaction kinetics and fit statistics (R2, 95% confidence interval, absolute sum of squares). Initial velocity (0 minutes to 20+ minutes) from each reaction was determined from the slope of a plot of relative fluorescence units vs time (minutes) and then plotted against inhibitor concentration to estimate IC50 from log [Inhibitor] vs Response, Variable Slope model in GraphPad Prism from GraphPad Software (San Diego, Calif.).
[PDGFRα]=2-5 nM, [ATP]=60 μM and [Y9-Sox peptide]=10 μM (ATP KMapp=61 μM)
as §4

KDR = KDR (Homo sapiens, UniProt P35968); assay: KDR Omnia continuous-read kinase assay; assay type: biochemical; set-up: purchased Invitrogen or BPS Bioscience PV3660 or 40301
Description: as §1, §2
as §3, with “Calif.). […]” for “Calif.).”
as §4

CKIT D816V = CKIT D816V (Homo sapiens, UniProt P10721, D816V); assay: c-Kit mutant Omnia kinase assay; assay type: biochemical; details: read-out: IC50_APP CKIT D816V
CKIT [2] = assay: cKIT washout assay in GIST882 cells (C-kit phosphorylation, western blot); assay type: cell-based; details: 1 uM for 90 minutes, then washed free of compound
Description: GIST882 cells (See, Bauer et al., Cancer Research, 66(18):9153-9161 (2006)) were seeded in a 6 well plate at a density of 8×10^5 cells/well in complete media. The next day cells were treated with 1 uM compound diluted in complete media for 90 minutes. After 90 minutes, the media was removed and cells were washed with compound-free media. Cells were washed every 2 hours and resuspended in fresh compound-free media. Cells were collected at specified time points, lysed in Cell Extraction Buffer (Invitrogen FNN0011) supplemented with Roche complete protease inhibitor tablets (Roche 11697498001) and phosphatase inhibitors (Roche 04 906 837 001) and lysates were sheared by passing through a 28.5 gauge syringe 10 times each. Protein concentrations were measured and 10 ug total protein lysate was loaded in each lane. C-kit phosphorylation was assayed by western blot with pTyr (4G10) antibody and total kit antibody from Cell Signaling Technology.
Sorafenib and XVIII-11 were tested for cellular activity in a GIST882 cell line at 1 micromolar. The results are depicted in FIGS. 2a and 2b where it is shown that XVIII-11 maintained c-KIT enzyme inhibition in […] cells after “washout” for at least 8 hours. […] In order to understand whether there was a prolonged inhibition with the irreversible inhibitor the cells were washed free of compound. For the reversible inhibitor, Sorafenib, the inhibitory activity of cKIT and downstream signaling was overcome whereas the irreversible inhibition of XVIII-11 persisted for at least 8 hours.

[3] = 30 min pre-incubation, [ATP]=500 μM, read-out: IC50_APP FLT3
[4] = 30 min pre-incubation, read-out: IC50_APP KDR
[5] = 30 min pre-incubation, [ATP]=60 μM, read-out: IC50_APP PDGFRA

T2 sequence (P16234 24-1089): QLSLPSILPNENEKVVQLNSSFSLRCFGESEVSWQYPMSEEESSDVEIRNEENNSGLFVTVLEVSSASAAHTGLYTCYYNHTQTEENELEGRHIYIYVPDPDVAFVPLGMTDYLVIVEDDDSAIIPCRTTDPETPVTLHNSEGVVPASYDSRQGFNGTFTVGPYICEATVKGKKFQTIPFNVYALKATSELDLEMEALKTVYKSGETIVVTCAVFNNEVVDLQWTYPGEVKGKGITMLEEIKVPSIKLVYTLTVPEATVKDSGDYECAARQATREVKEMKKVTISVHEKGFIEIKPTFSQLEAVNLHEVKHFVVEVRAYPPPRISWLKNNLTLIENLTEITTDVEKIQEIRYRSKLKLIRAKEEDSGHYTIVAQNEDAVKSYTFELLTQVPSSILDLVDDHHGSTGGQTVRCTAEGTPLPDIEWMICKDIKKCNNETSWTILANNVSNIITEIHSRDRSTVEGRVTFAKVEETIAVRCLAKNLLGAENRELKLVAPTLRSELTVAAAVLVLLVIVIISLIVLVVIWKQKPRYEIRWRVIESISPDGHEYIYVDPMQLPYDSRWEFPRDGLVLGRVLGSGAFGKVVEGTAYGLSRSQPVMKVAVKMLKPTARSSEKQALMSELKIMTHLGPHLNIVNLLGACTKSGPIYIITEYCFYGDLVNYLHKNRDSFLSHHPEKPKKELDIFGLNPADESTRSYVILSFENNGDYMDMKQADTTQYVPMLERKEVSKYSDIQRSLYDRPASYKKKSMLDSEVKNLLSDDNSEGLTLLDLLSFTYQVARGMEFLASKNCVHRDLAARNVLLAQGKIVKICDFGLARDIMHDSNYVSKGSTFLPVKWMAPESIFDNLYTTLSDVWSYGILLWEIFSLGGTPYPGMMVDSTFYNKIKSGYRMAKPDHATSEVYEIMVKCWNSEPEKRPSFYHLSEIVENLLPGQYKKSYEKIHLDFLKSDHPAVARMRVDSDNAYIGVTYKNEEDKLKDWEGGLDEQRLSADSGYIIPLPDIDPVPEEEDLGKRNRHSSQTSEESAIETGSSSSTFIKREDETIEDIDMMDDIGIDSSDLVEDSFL
KDR, sequence (P35968 20-1356): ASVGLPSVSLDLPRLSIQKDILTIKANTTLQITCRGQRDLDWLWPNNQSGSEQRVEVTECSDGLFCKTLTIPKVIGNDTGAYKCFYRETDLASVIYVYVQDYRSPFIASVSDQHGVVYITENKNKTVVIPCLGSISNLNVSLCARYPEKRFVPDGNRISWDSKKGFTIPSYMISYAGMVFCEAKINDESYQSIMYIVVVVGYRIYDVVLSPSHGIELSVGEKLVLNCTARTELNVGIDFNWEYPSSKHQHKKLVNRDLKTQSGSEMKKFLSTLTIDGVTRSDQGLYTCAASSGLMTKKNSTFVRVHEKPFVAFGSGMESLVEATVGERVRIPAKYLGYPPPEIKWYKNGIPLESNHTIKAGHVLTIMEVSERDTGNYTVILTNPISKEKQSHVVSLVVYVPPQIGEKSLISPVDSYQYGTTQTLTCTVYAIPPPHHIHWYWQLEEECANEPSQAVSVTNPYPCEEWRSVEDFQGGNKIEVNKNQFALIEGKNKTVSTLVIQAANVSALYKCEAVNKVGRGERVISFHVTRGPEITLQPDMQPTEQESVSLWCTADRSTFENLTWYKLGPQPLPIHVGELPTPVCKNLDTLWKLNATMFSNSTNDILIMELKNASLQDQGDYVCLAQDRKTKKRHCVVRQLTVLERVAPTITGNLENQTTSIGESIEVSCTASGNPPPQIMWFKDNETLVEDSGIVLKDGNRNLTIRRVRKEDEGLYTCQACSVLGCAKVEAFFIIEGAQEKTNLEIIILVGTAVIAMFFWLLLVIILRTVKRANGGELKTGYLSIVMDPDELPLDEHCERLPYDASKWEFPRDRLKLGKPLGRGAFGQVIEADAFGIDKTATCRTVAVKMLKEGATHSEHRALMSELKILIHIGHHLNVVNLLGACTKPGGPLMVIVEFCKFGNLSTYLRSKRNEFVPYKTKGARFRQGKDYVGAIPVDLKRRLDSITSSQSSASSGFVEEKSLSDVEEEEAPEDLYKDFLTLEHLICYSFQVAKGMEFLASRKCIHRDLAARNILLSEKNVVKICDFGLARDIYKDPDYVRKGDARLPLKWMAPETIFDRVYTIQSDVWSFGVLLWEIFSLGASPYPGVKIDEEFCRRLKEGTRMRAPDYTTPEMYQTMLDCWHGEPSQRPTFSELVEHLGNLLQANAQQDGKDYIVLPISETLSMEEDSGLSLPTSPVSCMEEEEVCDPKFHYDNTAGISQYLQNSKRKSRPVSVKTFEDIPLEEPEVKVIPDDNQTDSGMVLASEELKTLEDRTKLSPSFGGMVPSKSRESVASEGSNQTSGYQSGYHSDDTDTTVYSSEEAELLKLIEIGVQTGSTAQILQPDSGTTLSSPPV
CKIT (Homo sapiens, UniProt P10721), sequence (P10721 26-976): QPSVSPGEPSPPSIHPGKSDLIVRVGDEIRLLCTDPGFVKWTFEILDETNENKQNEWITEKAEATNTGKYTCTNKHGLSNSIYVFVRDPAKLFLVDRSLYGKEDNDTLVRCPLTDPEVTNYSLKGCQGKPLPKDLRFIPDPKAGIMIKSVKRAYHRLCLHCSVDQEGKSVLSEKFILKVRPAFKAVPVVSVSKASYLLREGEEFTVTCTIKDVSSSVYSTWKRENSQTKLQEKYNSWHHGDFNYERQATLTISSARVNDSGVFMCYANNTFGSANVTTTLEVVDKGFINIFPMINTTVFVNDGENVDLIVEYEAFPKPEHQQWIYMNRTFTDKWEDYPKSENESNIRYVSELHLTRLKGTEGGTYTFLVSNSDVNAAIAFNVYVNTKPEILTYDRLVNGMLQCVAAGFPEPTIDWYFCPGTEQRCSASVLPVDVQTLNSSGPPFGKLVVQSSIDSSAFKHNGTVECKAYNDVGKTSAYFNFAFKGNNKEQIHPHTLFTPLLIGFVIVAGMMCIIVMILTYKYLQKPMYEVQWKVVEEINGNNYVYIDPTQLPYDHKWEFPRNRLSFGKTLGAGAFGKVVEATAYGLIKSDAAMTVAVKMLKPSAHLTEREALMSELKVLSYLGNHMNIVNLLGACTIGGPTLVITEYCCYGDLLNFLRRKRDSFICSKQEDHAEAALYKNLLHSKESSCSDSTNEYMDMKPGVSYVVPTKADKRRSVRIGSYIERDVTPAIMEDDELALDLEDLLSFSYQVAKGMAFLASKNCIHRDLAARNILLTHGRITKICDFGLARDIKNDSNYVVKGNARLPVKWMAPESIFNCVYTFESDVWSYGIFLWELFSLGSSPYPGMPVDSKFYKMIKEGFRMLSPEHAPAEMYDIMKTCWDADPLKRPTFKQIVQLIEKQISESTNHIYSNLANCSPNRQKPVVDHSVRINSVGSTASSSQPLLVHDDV
CKIT D816V, sequence (P10721 26-976 D816V): as the sequence (P10721 26-976) above, with D791V counted along it

Compound: CCC(=O)Nc1ccc(NC(=O)Nc2ccc(Oc3ccnc(C(=O)NC)c3)cc2)cc1C(F)(F)F [Reversible Reference Compound 3, 4-(4-(3-(4-(Propionamido)-3-(trifluoromethyl)phenyl)ureido)phenoxy)-N-methylpicolinamide, reference compound]
- IC50 (FLT3; reversible reference compounds, read-out: IC50 FLT3): 0.461 nM
- IC50 (CKIT [1]): 16.3 nM
- IC50 (PDGFRA; reversible reference compounds, read-out: IC50 PDGFRA): 4.15 nM
- IC50 (KDR; reversible reference compounds, read-out: IC50 KDR): 39.4 nM

Compound: C=CC(=O)Nc1ccc(NC(=O)Nc2ccc(Oc3ccnc(C(=O)NC)c3)cc2)cc1C(F)(F)F [XVIII-11, 4-(4-(3-(4-Acrylamido-3-(trifluoromethyl)phenyl)ureido)phenoxy)-N-methylpicolinamide]
- IC50 (FLT3; [3]): 1.99 nM
- IC50 (CKIT D816V): 3.42 nM
- duration of c-KIT inhibition after washout (CKIT [2]): at least 8 hours
- IC50 (KDR; [4]): 26.9 nM

Compound: CNC(=O)c1cc(Oc2ccc(NC(=O)Nc3ccc(NC(=O)CCl)c(C(F)(F)F)c3)cc2)ccn1 [XVIII-13, 4-(4-(3-(4-(2-Chloroacetamido)-3-(trifluoromethyl)phenyl)ureido)phenoxy)-N-methylpicolinamide]
- IC50 (FLT3; [3]): 0.508 nM
- IC50 (PDGFRA; [5]): 0.508 nM
- IC50 (KDR; [4]): 0.95 nM

Compound: CNC(=O)c1cc(Oc2ccc(NC(=O)Nc3ccc(NC(=O)C(C)Cl)c(C(F)(F)F)c3)cc2)ccn1 (centres unmarked) [XVIII-14, 4-(4-(3-(4-(2-Chloropropionamido)-3-(trifluoromethyl)phenyl)ureido)phenoxy)-N-methylpicolinamide]
- IC50 (FLT3; [3]): 107 nM
- IC50 (PDGFRA; [5]): 1.54 nM
- IC50 (KDR; [4]): 6.94 nM
